Experimental data published in PubChem BioAssay (NCI).
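1) Cells in 96-well plates. 2) Compound, 48 h, 5 concentrations. 3) Linear interpolation between surrounding doses. 4) Unreached endpoint = highest concentration. TGI marks complete inhibition of growth.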

What was measured:
Assay in all cases: NCI tumour cell line growth inhibition, 48 h
[1] = system: 786-0 renal
[2] = system: A498 renal
[3] = system: A549 NSCLC
[4] = system: ACHN renal
[5] = system: BT-549 breast
[6] = system: CAKI-1 renal
[7] = system: CCRF-CEM leukemia
[8] = system: COLO 205 colon
[9] = system: DU-145 prostate
[10] = system: EKVX NSCLC
[11] = system: HCC-2998 colon
[12] = system: HCT-116 colon
[13] = system: HCT-15 colon
[14] = system: HL-60(TB) leukemia
[15] = system: HOP-62 NSCLC
[16] = system: HOP-92 NSCLC
[17] = system: HS 578T breast
[18] = system: HT29 colon
[19] = system: IGROV1 ovarian
[20] = system: K-562 leukemia
[21] = system: KM12 colon
[22] = system: LOX IMVI melanoma
[23] = system: M14 melanoma
[24] = system: MALME-3M melanoma
[25] = system: MCF7 breast
[26] = system: MDA-MB-231 breast
[27] = system: MDA-MB-435
[28] = system: MDA-N
[29] = system: MOLT-4 leukemia
[30] = system: NCI-H226 lung
[31] = system: NCI-H23 lung
[32] = system: NCI-H460 lung
[33] = system: NCI-H522 lung
[34] = system: NCI/ADR-RES ovarian
[35] = system: OVCAR-3 ovarian
[36] = system: OVCAR-4 ovarian
[37] = system: OVCAR-5 ovarian
[38] = system: OVCAR-8 ovarian
[39] = system: PC-3 prostate
[40] = system: RPMI-8226 leukemia
[41] = system: RXF 393 renal
[42] = system: SF-268 CNS
[43] = system: SF-295 CNS
[44] = system: SK-MEL-2 melanoma
[45] = system: SK-MEL-28 melanoma
[46] = system: SK-MEL-5 melanoma
[47] = system: SK-OV-3 ovarian
[48] = system: SNB-19 CNS
[49] = system: SNB-75 CNS
[50] = system: SW-620 colon
[51] = system: TK-10 renal
[52] = system: U251 CNS
[53] = system: UACC-257 melanoma
[54] = system: UACC-62 melanoma
[55] = system: UO-31 renal

SMILES: NC(=Nc1ccc(Cl)c(Cl)c1)c1ccccc1N
- TGI [1]: > 100 µM
- TGI [2]: 55.1 µM
- TGI [3]: > 100 µM
- TGI [4]: > 100 µM
- TGI [5]: > 100 µM
- TGI [6]: > 100 µM
- TGI [7]: > 100 µM
- TGI [8]: 52.8 µM
- TGI [9]: > 100 µM
- TGI [10]: > 100 µM
- TGI [11]: 34.2 µM
- TGI [12]: 57.1 µM
- TGI [13]: > 100 µM
- TGI [14]: 52 µM
- TGI [15]: > 100 µM
- TGI [16]: 8.47 µM
- TGI [17]: 50 µM
- TGI [18]: > 100 µM
- TGI [19]: 97.9 µM
- TGI [20]: 41.9 µM
- TGI [21]: > 100 µM
- TGI [22]: 69.3 µM
- TGI [23]: 41.4 µM
- TGI [24]: 45.9 µM
- TGI [25]: > 100 µM
- TGI [26]: > 100 µM
- TGI [27]: 42.2 µM
- TGI [28]: 53.4 µM
- TGI [29]: 69.3 µM
- TGI [30]: > 100 µM
- TGI [31]: > 100 µM
- TGI [32]: > 100 µM
- TGI [33]: 32.6 µM
- TGI [34]: 95.5 µM
- TGI [35]: > 100 µM
- TGI [36]: > 100 µM
- TGI [37]: > 100 µM
- TGI [38]: > 100 µM
- TGI [39]: 92.4 µM
- TGI [40]: 39.3 µM
- TGI [41]: 75.9 µM
- TGI [42]: > 100 µM
- TGI [43]: > 100 µM
- TGI [44]: 86.8 µM
- TGI [45]: 52.2 µM
- TGI [46]: 54.7 µM
- TGI [47]: > 100 µM
- TGI [48]: > 100 µM
- TGI [49]: 75.7 µM
- TGI [50]: > 100 µM
- TGI [51]: > 100 µM
- TGI [52]: > 100 µM
- TGI [53]: 92.7 µM
- TGI [54]: > 100 µM
- TGI [55]: > 100 µM
